Laboratory results from US5256698A, “Treatment of psychosis using cyclohexyl-phenyl-lower alkyl amine derivatives” (University of Iowa Research Foundation, priority 1990, dated 1993).
Entries after “also recorded” stand apart in the source; their conditions may differ.

Columns and labels:
sigma binding sites [1] = conditions: background; cited from earlier work
sigma binding sites [2] = assay: sigma binding site inhibition: displacement of radiolabelled haldol; conditions: for binding to the sigma binding site (in words): hydrochloride
Protocol: The compound prepared in Example 1 was tested for sigma binding site inhibition in comparison with Haldol, a knows selective receptor for sigma binding sites. In particular, a radioligand of haldol was bound to sigma binding sites to provide radio labeled ligands at sigma binding receptor sites of tissue. In the tests, the compound of Example 1 was then added to the cell system to see how successfully it displaced the radioactive ligands at the sigma binding site. The higher the percentage of radio ligand displaced, the greater the percentage of specific binding at the sigma sites.
The compound of Example 2 was tested in a similar fashion to that previously described in order to test comparison with Haldol or sigma binding site activity.

Dopamine 2 = Dopamine 2 binding, [^3 H]-Sulpiride; conditions: for Percent Inhibition: Average, N = 2; for Percent Binding: Table 6 (head from Table 5)
Text: (§1) Any number for a psychoactive drug over 50% is considered highly significant. By way of example, the following Table 2 illustrates a percentage of specific binding for certain known psychoactives capable of binding at other binding sites which are responsible for the undesirable side effects often associated with psychoactive agents.

PCP = PCP site binding, [^3 H]-TCP; conditions: for Percent Inhibition / Percent Binding: [^3 H]-TCP; for Percent Inhibition: Average, N = 2; for Percent Binding: Table 6 (head from Table 5)
Text: as §1
[^3 HTCP is a PCP derivative which selectively labels PCP site; PCP i

dopaminergic receptors = assay: binding at dopaminergic receptors (summary of dopamine 1 and 2 binding)
Text: as §1

sigma = sigma binding capability, [^3 H]-DTG; conditions: for Percent Binding: [^3 H]-DTG
Protocol: The compound prepared in Example 1 was tested for sigma binding site inhibition in comparison with Haldol, a knows selective receptor for sigma binding sites. […] In the tests, the compound of Example 1 was then added to the cell system to see how successfully it displaced the radioactive ligands at the sigma binding site. The higher the percentage of radio ligand displaced, the greater the percentage of specific binding at the sigma sites.
The following table illustrates testing of sigma binding capability of bromhexine. Again, the test protocol and procedure were as previously described.

Dopamine 1 = Dopamine 1 binding, [^3 H]-SCH 23390; conditions: for Percent Binding: Table 6 (head from Table 5); for Percent Inhibition: Average, N = 2
Text: as §1

Compound: c1ccc(C2(N3CCCCC3)CCCCC2)cc1 [PCP, phencyclidine]
- affinity for sigma binding sites (in words) (sigma binding sites [1]): also bind at this site

Compound: CCN(CCc1ccccc1)C1CCCCC1.Cl [Example 2, N-cyclohexyl-N-ethyl 2-phenylethylamine hydrochloride]
- % Displaced Haldol (sigma binding sites [2]; Table 3, 10^-5 M, 10 µM): 107.6%
- % Sigma Site Binding (sigma binding sites [2]; Table 3, 10^-5 M, 10 µM): -7.6%
- VERIFICATION % Displaced Haldol (sigma binding sites [2]; Table 3, 10^-5 M, 10 µM): 91.7%
- VERIFICATION % Sigma Site Binding (sigma binding sites [2]; Table 3, 10^-5 M, 10 µM): 8.3%
- % Displaced Haldol (sigma binding sites [2]; Table 3, 10^-7 M, 0.1 µM): 84.7%
- % Sigma Site Binding (sigma binding sites [2]; Table 3, 10^-7 M, 0.1 µM): 15.3%
- VERIFICATION % Displaced Haldol (sigma binding sites [2]; Table 3, 10^-7 M, 0.1 µM): 69.0%
- VERIFICATION % Sigma Site Binding (sigma binding sites [2]; Table 3, 10^-7 M, 0.1 µM): 31.0%
- % Displaced Haldol (sigma binding sites [2]; Table 3, 10^-9 M, 0.001 µM): 43.2%
- % Sigma Site Binding (sigma binding sites [2]; Table 3, 10^-9 M, 0.001 µM): 56.8%
- VERIFICATION % Displaced Haldol (sigma binding sites [2]; Table 3, 10^-9 M, 0.001 µM): 33.9%
- VERIFICATION % Sigma Site Binding (sigma binding sites [2]; Table 3, 10^-9 M, 0.001 µM): 66.1%
- binding to the sigma binding site (in words) (sigma binding sites [2]): binds selectively to the sigma and PCP binding sites
- binding to the sigma binding site (in words) (sigma binding sites [2]; listed as N-cyclohexyl-N-ethyl 2-phenylethylamine): high degree of active sigma binding capability
- Percent Inhibition (Dopamine 2; 10^-5 M): 47.2%
- Percent Inhibition (Dopamine 2; 10^-7 M): 7.8%
- Percent Inhibition (Dopamine 2; 10^-9 M): 5.9%
- binding to PCP sites (in words) (PCP): binds selectively to the sigma and PCP binding sites
- Percent Inhibition (PCP; 10^-5 M): 87.7%
- Percent Inhibition (PCP; 10^-7 M): 21.0%
- Percent Inhibition (PCP; 10^-9 M): 11.1%
- binding to dopaminergic sites (in words) (dopaminergic receptors): only very weakly binds to the dopaminergic site

Compound: O=C(CCCN1CCC(O)(c2ccc(Cl)cc2)CC1)c1ccc(F)cc1 [haloperidol]
- affinity for sigma binding sites (in words) (sigma binding sites [1]): high affinity

Compound: CN(Cc1cc(Br)cc(Br)c1N)C1CCCCC1 [bromhexine, reference compound]
- Percent Binding (sigma; 10^-5 M, 10 µM): 90.8%
- Percent Binding (sigma; 10^-7 M, 0.1 µM): 45.1%
- Percent Binding (sigma; 10^-9 M, 0.001 µM): 24.8%
- sigma binding capability (in words) (sigma; bromhexine): bind to the sigma site; also recorded: high degree of active sigma binding capability
- Percent Binding (Dopamine 1; 10^-5 M, 10 µM): 17.5%
- Percent Binding (Dopamine 1; 10^-7 M, 0.1 µM): 10.8%
- Percent Binding (Dopamine 1; 10^-9 M, 0.001 µM): 3.9%
- Percent Binding (Dopamine 2; 10^-5 M, 10 µM): 11.9%
- Percent Binding (Dopamine 2; 10^-7 M, 0.1 µM): 4.5%
- Percent Binding (Dopamine 2; 10^-9 M, 0.001 µM): 5.6%
- binding to PCP sites (in words) (PCP): negligible
- Percent Binding (PCP; 10^-5 M, 10 µM): -2.5%
- Percent Binding (PCP; 10^-7 M, 0.1 µM): 0.2%
- Percent Binding (PCP; 10^-9 M, 0.001 µM): -13.6%
- binding to dopaminergic sites (in words) (dopaminergic receptors): negligible

Compound: CCN(Cc1ccccc1)C1CCCCC1.Cl [Example 1, N-cyclohexyl-N-ethylbenzylamine hydrochloride]
- % Displaced Haldol (sigma binding sites [2]; Table 1, 10^-5 M, 10 µM): 96.0%
- % Sigma Site Binding (sigma binding sites [2]; Table 1, 10^-5 M, 10 µM): 4.0%
- VERIFICATION % Displaced Haldol (sigma binding sites [2]; Table 1, 10^-5 M, 10 µM): 86.7%
- VERIFICATION % Sigma Site Binding (sigma binding sites [2]; Table 1, 10^-5 M, 10 µM): 13.3%
- % Displaced Haldol (sigma binding sites [2]; Table 1, 10^-7 M, 0.1 µM): 99.1%
- % Sigma Site Binding (sigma binding sites [2]; Table 1, 10^-7 M, 0.1 µM): 0.9%
- VERIFICATION % Displaced Haldol (sigma binding sites [2]; Table 1, 10^-7 M, 0.1 µM): 61.1%
- VERIFICATION % Sigma Site Binding (sigma binding sites [2]; Table 1, 10^-7 M, 0.1 µM): 38.9%
- % Displaced Haldol (sigma binding sites [2]; Table 1, 10^-9 M, 0.001 µM): 27.5%
- % Sigma Site Binding (sigma binding sites [2]; Table 1, 10^-9 M, 0.001 µM): 72.5%
- VERIFICATION % Displaced Haldol (sigma binding sites [2]; Table 1, 10^-9 M, 0.001 µM): 22.5%
- VERIFICATION % Sigma Site Binding (sigma binding sites [2]; Table 1, 10^-9 M, 0.001 µM): 77.5%
- binding to the sigma binding site (in words) (sigma binding sites [2]): selectively binds to the sigma binding site
- binding to the sigma binding site (in words) (sigma binding sites [2]; listed as N-cyclohexyl-N-ethyl 2-benzylamine): high degree of active sigma binding capability
- Percent Inhibition (Dopamine 1; 10^-5 M): 10.7%
- Percent Inhibition (Dopamine 1; 10^-7 M): 5.9%
- Percent Inhibition (Dopamine 1; 10^-9 M): 3.2%
- Percent Inhibition (Dopamine 2; 10^-5 M): 14.8%
- Percent Inhibition (Dopamine 2; 10^-7 M): -1.5%
- Percent Inhibition (Dopamine 2; 10^-9 M): -1.4%
- Percent Inhibition (PCP; 10^-5 M): 25.1%
- Percent Inhibition (PCP; 10^-7 M): 7.1%
- Percent Inhibition (PCP; 10^-9 M): 9.4%
- binding to dopaminergic sites (in words) (dopaminergic receptors): excluded from binding at dopaminergic receptors
